Counter-ions that a name gives are not always drawn.
Legend:
[1] = Photo stability of bulk substance (Suntest CPS+ cabinet); details: 29 hours
Procedure: The exposure was 250 Wh/m^2 and 1.2 million lux hours over 29 hours.

[2] = Hygroscopicity by Dynamic Vapour Sorption Analysis (DVS); type: physicochemical; details: 25° C.
Procedure: Dynamic Vapour Sorption Analysis (DVS)
The studies were undertaken using Dynamic Vapour Sorption Apparatus (DVS, Surface Measurement Systems, London UK). The apparatus consists of Cahn micobalance housed inside a temperature-controled cabinet. All experiments were performed at 25° C. The DVS was used to characterize the moisture uptake (w/w %) at different relative humidities (RH). Samples (5-10 mg) were weighed directly into the DSV sample cup and exposed to different relative humidities.

Row | photo stability compared with the hydrochloride salt and the free base [1] | moisture uptake ([2]; 40% relative humidity, citrate) [w/w %] | moisture uptake ([2]; 60% relative humidity, citrate) [w/w %] | moisture uptake ([2]; 80% relative humidity, citrate) [w/w %] | hygroscopicity compared with the hydrochloride salt ([2]; DVS) | moisture uptake ([2]; 40% relative humidity) [w/w %] | moisture uptake ([2]; 60% relative humidity) [w/w %] | moisture uptake ([2]; 80% relative humidity) [w/w %] | SMILES
1 | much higher photo stability | 7.1 | 7.6 | 8.0 | lower hygroscopicity |  |  |  | N#Cc1ccc2[nH]c(O)c(-c3ccc(CN4CCOCC4)cn3)c2c1 [Citrate, 2-hydroxy-3-[5-(morpholin-4-ylmethyl)pyridin-2-yl]1H-indole-5-carbonitrile citrate]
2 |  |  |  |  |  | 8.7 | 11.5 | 13.0 | N#Cc1ccc2[nH]c(O)c(-c3ccc(CN4CCOCC4)cn3)c2c1 [HCl, hydrochloride salt of 2-hydroxy-3-[5-(morpholin-4-ylmethyl)pyridin-2-yl]1H-indole-5-carbonitrile, reference compound]

Source: patent publication US20070203137A1, “New Salt” (ASTRAZENECA AB, priority 2006, published 2007)
